Measured values as given in patent US10254297B2, “Assay for methoxetamine” (Randox Laboratories Ltd, priority 2015, dated 2019).
≈ marks a conversion by molar mass, not a printed value.

Tested on: antibody raised against Immunogen 2 (Example 9), Tracer 1
Assay: Competitive assay (ELISA) for cross-reactivity measurement
Type: binding, sheep
Details: for IC50 used in % CCR calculation: standard concentration giving 50% inhibition of maximal signal; for CCR (competitive cross reactivity): Table 1, antibodies raised against Immunogen 2, Tracer 1, relative to methoxetamine = 100%, summarised from FIGS. 5 to 7; for Antibody binding, in words: Table 1 and FIGS. 5 to 7, antibody of the invention
[1] = FIG. 5 (antibody derived from sheep 1)

SMILES: CCNC1(c2cccc(OC)c2)CCCCC1=O (stereo not drawn) [Methoxetamine, 2-(3-methoxyphenyl)-2-(ethylamino)cyclohexanone]
- IC50 used in % CCR calculation [1]: 0.47 ng/mL (≈ 1.9 nM)
- CCR (competitive cross reactivity): 100.00%
- Antibody binding, in words: high affinity

SMILES: NC1(c2ccccc2Cl)CCCCC1=O (stereo not drawn) [Norketamine]
- CCR (competitive cross reactivity): <5.00%

SMILES: COc1cccc(C2(O)CCCCC2CN(C)C)c1 (stereo not drawn) [Tramadol]
- CCR (competitive cross reactivity): <5.00%
- Antibody binding, in words: does not bind

SMILES: c1ccc(C2(N3CCCCC3)CCCCC2)cc1 [Phencyclidine]
- CCR (competitive cross reactivity): <5.00%
- Antibody binding, in words: does not bind

SMILES: CNC1(c2ccccc2Cl)CCCCC1=O (stereo not drawn) [Ketamine]
- CCR (competitive cross reactivity): <5.00%
- Antibody binding, in words: does not bind

SMILES: CCOC(=O)C1(c2ccccc2)CCC=CC1N(C)C (stereo not drawn) [Tilidine]
- CCR (competitive cross reactivity): <5.00%

SMILES: COc1cccc(C2(N)CCCCC2=O)c1 (stereo not drawn) [N-desethylmethoxetamine, 2-amino-2-(3-methoxyphenyl)cyclohexanone]
- % CCR (compared to methoxetamine) (FIG. 5 (antibody derived from sheep 1), IC50 methoxetamine / IC50 analyte x 100): 24%
- IC50 used in % CCR calculation [1]: 1.96 ng/mL (≈ 8.94 nM)
- CCR (competitive cross reactivity): >5.00%
- Antibody binding, in words: substantial binding
